From US20230310446A1, “RHO KINASE INHIBITION FOR TREATMENT OF PROLIFERATIVE VITREORETINOPATHY AND CONDITIONS ASSOCIATED WITH EPITHELIAL TO MESENCHYMAL TRANSITION” (The Schepens Eye Research Institute, Inc., priority 2020, published 2023)
Entries after “also recorded” stand apart in the source; their conditions may differ.

B1: TGF-β2: Recombinant Human TGF-β2 growth factor (PeproTech) used as stimulus of EMT and RhoA activation (protein, UniProt P61812 303-414, looked up)
Transforming growth factor …: ALDAAYCFRNVQDNCCLRPLYIDFKRDLGWKWIHEPKGYNANFCAGACPYLWSSDTQHSRVLSLYNTINPEASASPCCVSQDLEPLTILYYIGKTPKIEQLSNMIVKSCKCS

Columns and labels:
PVR explants [1] = experiment: Ex vivo model of PVR: outgrowth from PVR membrane explants embedded in Matrigel; type: cell-based, human; details: for explant outgrowths, inhibition of proliferation and migration: 1 μM, all time points
Experimental: PVR membranes were divided into pieces and embedded in growth factor reduced Matrigel (354,230; BD Biosciences, San Jose, CA) in a 24-well plate and placed at 37° C. for 30 min for the Matrigel to solidify. The specimens were treated with either vehicle or Rho kinase inhibitors, Netarsudil (60 nM), Ripasudil (300 nM), Fasudil (1 uM), and Y27632 (1 uM) in 500 μl in PVR growth media comprising: • 1) Endothelial base medium (EBM2; Lonza-CC-3156)+ • 2) EGM 2 SingleQuot Kit suppl. & Growth factors (Lonza; CC-4176)+ • 3) 10% fetal bovine serum (Atlanta Biologicals)+ • 4) 1% Penicillin/Streptomycin+1% L-Glutamine • *** The total FBS in the media is 12% (2% from SingleQuot+10% additional) Phase contrast images were taken using an EVOS FL imaging system (Life Technologies) and the distance of growth from the embedded tissue was quantified using Image J (National Institutes of Health). PVR membranes were obtained from human donors with PVR grade C undergoing surgery. Membrane fragments placed on a matrigel mount with PVR cell growth media and treated with Rho-Kinase inhibitors ripasudil (1 μM), netarsudil (1 μM), fasudil (1 μM), Y-27632 (1 μM) and control with no drug.

C-PVR cells [2] = experiment: TGF-β2 induced mesenchymal phenotypic change, phase images; type: cell-based, human; details: 1 uM, TGF-β2 10 ng/ml, day 3
Experimental: PVR cells were seeded in well plates for a period of 72 hours. Cells were pre-treated with rho-kinase inhibitors: ripasudil, netarsudil, fasudil and […] (1 uM) for 24 hours, then treated with TGF-β2 […], rho-kinase inhibitors (1 uM), and control with no drug, using triplicates for each condition. Changes in phenotype were examined via phase images at day 3.

PVR explants [3] = experiment: Ex vivo model of PVR: outgrowth from PVR membrane explants embedded in Matrigel; type: cell-based; details: ex vivo cultured explants of PVR tissue from human subjects
C-PVR cells [4] = experiment: CyQUANT Direct Cell Proliferation Assay of primary PVR cultures; type: cell-based, human; details: 48 hours
Experimental: PVR cells were cultured and seeded into 96 well assay plates at 10,000 cells/well in complete growth media. […] Cell proliferation was assessed at 24, and 48 hour time points by CyQUANT® Direct Cell Proliferation Assay (Thermofisher Scientific) and compared to vehicle controls at 24, and 48 hours post treatment. The data was expressed as percent cell inhibition. […] Cell proliferation and cell death LDH levels were measured and quantified at 48 hours.

C-PVR cells [5] = experiment: LDH release cytotoxicity assay (CytoTox 96) of primary PVR cultures; type: cell-based, human; details: 48 hours
Experimental: Conditioned media was also collected at 24, and 48 hour time points for each condition, and percentage cell death was quantified by measuring LDH release using the CytoTox 96 Non-Radioactive Cytotoxicity Assay (Promega, Madison, WI, USA). As a positive control, the same number of cells maintained in parallel was lysed by two freeze—thaw cycles; the conditioned media were collected to measure the maximum LDH release. Percentage LDH release was calculated as 100%×(experimental LDH−spontaneous LDH)/(maximal LDH−spontaneous LDH).
PVR cells were cultured using Rho-Kinase inhibitors ripasudil, netarsudil, fasudil, Y-27632 at different concentrations (0.1 μM, 10 μM) and control with no drug. Cell proliferation and cell death LDH levels were measured and quantified at 48 hours.

C-PVR cells [6] = experiment: Cell migration of PVR cells quantified with phase images; type: cell-based, human; details: 1 μM
Experimental: PVR cells cultured using Rho-Kinase inhibitors ripasudil (1 μM), netarsudil (1 μM), fasudil (1 μM), Y-27632 (1 μM) and control with no drug. Cell migration was measured and quantified with phase images at 0, 3, 6, and 12 hours.

RhoA = RhoA pull down activation assay after TGF-β2 treatment; type: cell-based, human; details: C-PVR cells
Experimental: C-PVR cells were cultured and seeded in T-25 flasks at 1 million cells per flask. […] Cells were washed with ice-cold PBS and cell lysates were harvested with a cell scraper. Protein concentration of each time point was measured to ensure equal protein concentration. Using freshly prepared cell lysates, equivalent protein amounts (300-500 ug total protein) were added to 30 ul of rhotekin-RBD beads (Cytoskeleton, Denver, CO) for the […] pulldown assay. Pulldown assay supernatants were quantified using western blot analysis. An anti-RhoA primary antibody (Cytoskeleton, Denver, CO) was added and left overnight at 4° C., After primary antibody intubation, HRP labeled secondary antibody was added, following by addition on HRP detection reagent and intubated at room temperature for 5 minutes,
PVR cells cultured in T-25 flasks and treated with TGF-β2 […] at 80% confluence. […]

[7] = 7 days post embedding in Matrigel
[8] = 14 days post embedding in Matrigel

Molecule | explant outgrowths, inhibition of proliferation and migration (PVR explants [1]; listed as Y-2762, dihydrochloride) | mesenchymal phenotypic change in TGF-β2 treated C-PVR cells (C-PVR cells [2]) | numbers of live cells in the explants (PVR explants [3]) | reduction of proliferation in C-PVR cells (C-PVR cells [4]; 0.1 μM (lowest concentration)) [%] | reduction of proliferation in C-PVR cells (C-PVR cells [4]; 1 μM (lower concentration)) [%] | reduction of proliferation in C-PVR cells (C-PVR cells [4]; 10 μM (highest concentration)) [%] | cell death detected by LDH analysis (C-PVR cells [5]; all concentrations (10-0.1 μM)) | reduction of migration in C-PVR cells (C-PVR cells [6]) [%] | explant outgrowths, inhibition of proliferation and migration (PVR explants [1]) | cell death detected by LDH analysis (C-PVR cells [5]; low concentrations (0.1 μM)) | explant outgrowth (PVR explants [1]; [7]) [mm] | explant outgrowth (PVR explants [1]; [8]) [mm] | RhoA activation, increase over control (RhoA; 15 minutes after stimulation) | RhoA activation, increase over control (RhoA; 30 minutes after stimulation) [fold] | RhoA activation versus control (RhoA; 60 minutes after stimulation)
C[C@@H](N)[C@H]1CC[C@H](C(=O)Nc2ccncc2)CC1.Cl.Cl [Y-27632, (+)-(R)-trans-4-(1-aminoethyl)-N-(4-pyridyl)cyclohexanecarboxamide dihydrochloride] | no outgrowths and almost complete inhibition of proliferation and migration | slightly decreased | significantly reduced | – | – | – | – | – | – | – | – | – | – | – | –
O=S(=O)(c1cccc2cnccc12)N1CCCNCC1 [fasudil, 1-(5-isoquinolinesulfonyl)-homopiperazine] | – | slightly decreased | significantly reduced | 24 | 39 | 20 | low levels of cell death | 40 | no outgrowths and almost complete inhibition of proliferation and migration | – | – | – | – | – | –
Cc1ccc(C(=O)OCc2ccc([C@@H](CN)C(=O)Nc3ccc4cnccc4c3)cc2)c(C)c1 [netarsudil] | – | – | – | 39 | 37 | 95 | dose dependent cell death | 100 | – | Low levels of cell death | 4.2 | 37 | – | – | –
C[C@H]1CNCCCN1S(=O)(=O)c1cccc2cncc(F)c12 [ripasudil, 4-fluoro-5-[[(2S)-2-methyl-1,4-diazepan-1-yl]sulfonyl]isoquinoline] | – | slightly decreased | – | 21 | 25 | 44 | dose dependent cell death; also recorded: Low levels of cell death | 65 | – | – | 0.8 | 15 | – | – | –
B1 | – | – | – | – | – | – | – | – | – | – | – | – | 1.5 | 2 | slight decrease over control
